Assays:
S. aureus DSM 20231 [1] = assay: fitness (endpoint OD595 vs no drug) (fraction); higher = more growth
Method in brief: (§1)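 Fitness expresses the optical density reached at the stationary-phase transition as a fraction of the robust mean of no-drug control wells. It is capped at 1. Measurements were OD595 every 30 min for 14 h at 37 °C after inoculation of 384-well plates at OD595 0.01 (30 µl, or 55 µl for S. pneumoniae), minus the first reading.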

S. aureus Newman [2] = assay: as above
Method in brief: as §1

S. pneumoniae D39V [3] = assay: as above
Method in brief: as §1

B. subtilis 168 = assay: Bliss interaction score (quartile over a dose matrix) (fitness difference); higher = more antagonism (negative = synergy)
Method in brief: (§2)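 Each OD595 reading at entry into stationary phase was scaled to the robust mean of the untreated wells on its plate, with a ceiling of 1. These ratios define fitness, and single-drug fitness was inferred from combinations. The Bliss score compares observed fitness with the product-based expectation and is reported as quartiles across all replicate types, technical, biological and donor/recipient.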

S. aureus DSM 20231 [4] = assay: as above
Method in brief: as §2

S. aureus Newman [5] = assay: as above
Method in brief: as §2

S. pneumoniae D39V [6] = assay: as above
Method in brief: as §2
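Throughout, for Bliss interaction score (quartile over a dose matrix): first quartile when negative (synergy) and third quartile when positive (antagonism).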
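Throughout, for fitness (endpoint OD595 vs no drug): OD595 on entry to stationary phase over no-drug wells; at most 1.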

CC1(C)S[C@@H]2[C@H](NC(=O)[C@H](N)c3ccc(O)cc3)C(=O)N2[C@H]1C(=O)O [Amoxicillin] + CCC[C@@H]1C[C@@H](C(=O)N[C@@H]([C@H]2O[C@H](SC)[C@H](O)[C@@H](O)[C@H]2O)[C@H](C)Cl)N(C)C1 [Clindamycin]
Details	fitness
S. aureus DSM 20231 [1], first compound 0.0625 µg/mL, partner 0.0625 µg/mL	0.132
S. aureus DSM 20231 [1], first compound 0.0625 µg/mL, partner 0.125 µg/mL	0.0693
S. aureus DSM 20231 [1], first compound 0.125 µg/mL, partner 0.0312 µg/mL	0.157
S. aureus DSM 20231 [1], first compound 0.125 µg/mL, partner 0.0625 µg/mL	0.0589
S. aureus DSM 20231 [1], first compound 0.125 µg/mL, partner 0.125 µg/mL	0.0684
S. aureus DSM 20231 [1], first compound 0.25 µg/mL, partner 0.0312 µg/mL	0.0508
S. aureus DSM 20231 [1], first compound 0.25 µg/mL, partner 0.0625 µg/mL	0.038
S. aureus DSM 20231 [1], first compound 0.25 µg/mL, partner 0.125 µg/mL	0.0621
S. aureus DSM 20231 [1], first compound 0.5 µg/mL, partner 0.0312 µg/mL	0.0205
S. aureus DSM 20231 [1], first compound 0.5 µg/mL, partner 0.0625 µg/mL	0.0091
S. aureus DSM 20231 [1], first compound 0.5 µg/mL, partner 0.125 µg/mL	0.0231
S. aureus Newman [2], first compound 0.0625 µg/mL, partner 0.0312 µg/mL	0.698
S. aureus Newman [2], first compound 0.125 µg/mL, partner 0.125 µg/mL	0.0978
S. pneumoniae D39V [3], first compound 0.0008 µg/mL, partner 0.0125 µg/mL	0.796
S. pneumoniae D39V [3], first compound 0.0008 µg/mL, partner 0.025 µg/mL	0.519
S. pneumoniae D39V [3], first compound 0.0008 µg/mL, partner 0.05 µg/mL	0.203
S. pneumoniae D39V [3], first compound 0.0015 µg/mL, partner 0.0125 µg/mL	0.77
S. pneumoniae D39V [3], first compound 0.0015 µg/mL, partner 0.015 µg/mL	0.92
S. pneumoniae D39V [3], first compound 0.0015 µg/mL, partner 0.025 µg/mL	0.488
S. pneumoniae D39V [3], first compound 0.0015 µg/mL, partner 0.03 µg/mL	0.757
S. pneumoniae D39V [3], first compound 0.0015 µg/mL, partner 0.05 µg/mL	0.186
S. pneumoniae D39V [3], first compound 0.0015 µg/mL, partner 0.06 µg/mL	0.539
S. pneumoniae D39V [3], first compound 0.003 µg/mL, partner 0.0125 µg/mL	0.77
S. pneumoniae D39V [3], first compound 0.003 µg/mL, partner 0.015 µg/mL	0.872
S. pneumoniae D39V [3], first compound 0.003 µg/mL, partner 0.025 µg/mL	0.482
S. pneumoniae D39V [3], first compound 0.003 µg/mL, partner 0.03 µg/mL	0.726
S. pneumoniae D39V [3], first compound 0.003 µg/mL, partner 0.05 µg/mL	0.186
S. pneumoniae D39V [3], first compound 0.003 µg/mL, partner 0.06 µg/mL	0.509

fitness, S. pneumoniae D39V [3], one replicate
Details	partner 0.015 µg/mL	partner 0.03 µg/mL	partner 0.06 µg/mL
first compound 0.0008 µg/mL	0.962	0.84	0.557
first compound 0.006 µg/mL	0.505	0.385	0.298

Details	Bliss interaction score
B. subtilis 168	-0.0391
S. aureus DSM 20231 [4]	0.0324
S. aureus Newman [5]	-0.0717
S. pneumoniae D39V [6]	0.151

CO/N=C(\C(=O)N[C@@H]1C(=O)N2C(C(=O)[O-])=C(C[N+]3(C)CCCC3)CS[C@H]12)c1csc(N)n1 [Cefepime] + Cc1cc(NS(=O)(=O)c2ccc(N)cc2)no1 [Sulfamethoxazol]
fitness
Details	first compound 0.007 µg/mL	first compound 0.014 µg/mL	first compound 0.028 µg/mL	first compound 0.125 µg/mL	first compound 0.25 µg/mL	first compound 0.5 µg/mL
S. aureus DSM 20231 [1], partner 1 µg/mL	–	–	–	0.839	0.739	0.79
S. aureus DSM 20231 [1], partner 2 µg/mL	–	–	–	0.88	0.766	0.84
S. aureus DSM 20231 [1], partner 4 µg/mL	–	–	–	0.874	0.779	0.823
S. aureus Newman [2], partner 1 µg/mL	–	–	–	0.956	0.875	0.745
S. aureus Newman [2], partner 2 µg/mL	–	–	–	0.908	0.843	0.773
S. aureus Newman [2], partner 4 µg/mL	–	–	–	0.964	0.863	0.789
S. pneumoniae D39V [3], partner 1 µg/mL	0.978	0.991	0.887	–	–	–
S. pneumoniae D39V [3], partner 2 µg/mL	0.982	0.986	0.922	–	–	–
S. pneumoniae D39V [3], partner 4 µg/mL	0.98	0.992	0.892	–	–	–

fitness, one replicate
Details	first compound 0.0078 µg/mL	first compound 0.0155 µg/mL	first compound 0.031 µg/mL	first compound 0.125 µg/mL	first compound 0.25 µg/mL	first compound 0.5 µg/mL
S. aureus Newman [2], partner 8 µg/mL	–	–	–	0.981	0.972	0.854
S. pneumoniae D39V [3], partner 1 µg/mL	≥ 1	0.99	0.842	–	–	–
S. pneumoniae D39V [3], partner 2 µg/mL	≥ 1	≥ 1	0.866	–	–	–
S. pneumoniae D39V [3], partner 4 µg/mL	0.959	0.914	0.804	–	–	–

Details	Bliss interaction score
B. subtilis 168	0.0793
S. aureus DSM 20231 [4]	-0.0768
S. aureus Newman [5]	-0.0727
S. pneumoniae D39V [6]	0.034

CO/N=C(\C(=O)N[C@@H]1C(=O)N2C(C(=O)[O-])=C(C[N+]3(C)CCCC3)CS[C@H]12)c1csc(N)n1 [Cefepime] + CN[C@H](CC(C)C)C(=O)N[C@H]1C(=O)N[C@@H](CC(N)=O)C(=O)N[C@H]2C(=O)N[C@H]3C(=O)N[C@H](C(=O)N[C@H](C(=O)O)c4cc(O)cc(O)c4-c4cc3ccc4O)[C@H](O)c3ccc(c(Cl)c3)Oc3cc2cc(c3O[C@@H]2O[C@H](CO)[C@@H](O)[C@H](O)[C@H]2O[C@H]2C[C@](C)(N)[C@H](O)[C@H](C)O2)Oc2ccc(cc2Cl)[C@H]1O [Vancomycin]
Details	fitness
S. aureus DSM 20231 [1], first compound 0.125 µg/mL, partner 0.1875 µg/mL	0.872
S. aureus DSM 20231 [1], first compound 0.125 µg/mL, partner 0.375 µg/mL	0.868
S. aureus DSM 20231 [1], first compound 0.125 µg/mL, partner 0.75 µg/mL	0.936
S. aureus DSM 20231 [1], first compound 0.25 µg/mL, partner 0.1875 µg/mL	0.917
S. aureus DSM 20231 [1], first compound 0.25 µg/mL, partner 0.375 µg/mL	0.902
S. aureus DSM 20231 [1], first compound 0.25 µg/mL, partner 0.75 µg/mL	0.885
S. aureus DSM 20231 [1], first compound 0.5 µg/mL, partner 0.1875 µg/mL	0.883
S. aureus DSM 20231 [1], first compound 0.5 µg/mL, partner 0.375 µg/mL	0.864
S. aureus DSM 20231 [1], first compound 0.5 µg/mL, partner 0.75 µg/mL	0.906
S. aureus Newman [2], first compound 0.125 µg/mL, partner 0.1875 µg/mL	0.945
S. aureus Newman [2], first compound 0.125 µg/mL, partner 0.375 µg/mL	0.946
S. aureus Newman [2], first compound 0.125 µg/mL, partner 0.75 µg/mL	0.922
S. aureus Newman [2], first compound 0.25 µg/mL, partner 0.1875 µg/mL	0.879
S. aureus Newman [2], first compound 0.25 µg/mL, partner 0.375 µg/mL	0.867
S. aureus Newman [2], first compound 0.25 µg/mL, partner 0.75 µg/mL	0.858
S. aureus Newman [2], first compound 0.5 µg/mL, partner 0.1875 µg/mL	0.791
S. aureus Newman [2], first compound 0.5 µg/mL, partner 0.375 µg/mL	0.802
S. aureus Newman [2], first compound 0.5 µg/mL, partner 0.75 µg/mL	0.774
S. pneumoniae D39V [3], first compound 0.007 µg/mL, partner 0.125 µg/mL	0.992
S. pneumoniae D39V [3], first compound 0.007 µg/mL, partner 0.25 µg/mL	0.807
S. pneumoniae D39V [3], first compound 0.007 µg/mL, partner 0.5 µg/mL	0.0222
S. pneumoniae D39V [3], first compound 0.0078 µg/mL, partner 0.03125 µg/mL	0.977
S. pneumoniae D39V [3], first compound 0.0078 µg/mL, partner 0.0625 µg/mL	0.884
S. pneumoniae D39V [3], first compound 0.0078 µg/mL, partner 0.125 µg/mL	0.694
S. pneumoniae D39V [3], first compound 0.014 µg/mL, partner 0.125 µg/mL	0.944
S. pneumoniae D39V [3], first compound 0.014 µg/mL, partner 0.5 µg/mL	0.029
S. pneumoniae D39V [3], first compound 0.0155 µg/mL, partner 0.03125 µg/mL	0.879
S. pneumoniae D39V [3], first compound 0.028 µg/mL, partner 0.125 µg/mL	0.585
S. pneumoniae D39V [3], first compound 0.028 µg/mL, partner 0.5 µg/mL	0.0343
S. pneumoniae D39V [3], first compound 0.031 µg/mL, partner 0.0625 µg/mL	0.308
S. pneumoniae D39V [3], first compound 0.031 µg/mL, partner 0.125 µg/mL	0.269

Details	Bliss interaction score
B. subtilis 168	-0.154
S. aureus DSM 20231 [4]	0.0422
S. aureus Newman [5]	-0.0634
S. pneumoniae D39V [6]	-0.121

— the supplement of paper PMC10627819
